Assay results: patent US20060258729A1, “Antibacterial pyrazole carboxylic acid hydrazides” (priority 2002, published 2006)
pIC50: −log10 of the molar value. ≈ marks a conversion by molar mass, not a printed value.

Experiments:
[1] = system: Enterococcus faecalis strain 29212; assay: Inhibition of bacterial growth (MIC), Efcl; type: cell-based; conditions: 16 to 18 hours, 37° C.; for MIC: read-out: Minimum Inhibitory Concentration for Bacterial Growth, Efcl
Experimental: (§1) Each compound was assayed against a panel of a strain of Bacillus subtilis, of strains of antibiotic-resistant and sensitive Enterococcus and Staphylococcus species, and of a strain of the Gram-negative bacterium Escherichia coli. Compounds were dissolved in DMSO at 100× the desired highest concentration and added to one well of a 96-well microassay plate. Two-fold serial drug dilutions were made across the plate in DMSO to yield 11 concentrations (usually 80-0.078 μg/mL) plus an untreated control. Drugs were then transferred to fresh plates using 1.5 μL per well. Log phase cultures were diluted to yield a concentration of 1×10^5 colony forming units/mL in either LB or BHI medium and transferred to the plates containing drug for a final volume of 150 μL. Each well, including the DMSO controls, contained a final concentration of 1% DMSO. Plates were incubated with shaking at 37° C. for 16 to 18 hours. Cell growth was determined by measuring optical density (570 nm, 1 cm path length) in a microplate reader. MIC (minimum inhibitory concentration) is equivalent to the lowest concentration at which growth is not observed. The bacterial strains and MIC determinations have been well characterized and are described elsewhere (Tarantino et al., Antimicrob. Agents Chemother., 43: 1982-1987 (1999); Daly et al., Antimicrob. Agents Chemother., 44: 2217-2221 (2000)).

[2] = system: Bacillus subtilis strain BD54; assay: Inhibition of bacterial growth (MIC), Bs; type: cell-based; conditions: 16 to 18 hours, 37° C.; for MIC: read-out: Minimum Inhibitory Concentration for Bacterial Growth, Bs
Experimental: as §1

[3] = system: Staphylococcus aureus strain IP 8; assay: Inhibition of bacterial growth (MIC), Sa; type: cell-based; conditions: 37° C.; for MIC: IP8, 16 to 18 hours, read-out: Minimum Inhibitory Concentration for Bacterial Growth, Sa
Experimental: as §1

B. subtilis pol IIIC = biological target: T1, B. subtilis pol IIIC (Bacillus subtilis, UniProt P13267); assay: DNA polymerase assay, B. subtilis pol IIIC; type: biochemical; conditions: for inhibition at 80 µg/mL: read-out: Percent Enzymatic Inhibition B. subtilis pol IIIC
T1 construct: made in house
T1 sequence (P13267 whole entry): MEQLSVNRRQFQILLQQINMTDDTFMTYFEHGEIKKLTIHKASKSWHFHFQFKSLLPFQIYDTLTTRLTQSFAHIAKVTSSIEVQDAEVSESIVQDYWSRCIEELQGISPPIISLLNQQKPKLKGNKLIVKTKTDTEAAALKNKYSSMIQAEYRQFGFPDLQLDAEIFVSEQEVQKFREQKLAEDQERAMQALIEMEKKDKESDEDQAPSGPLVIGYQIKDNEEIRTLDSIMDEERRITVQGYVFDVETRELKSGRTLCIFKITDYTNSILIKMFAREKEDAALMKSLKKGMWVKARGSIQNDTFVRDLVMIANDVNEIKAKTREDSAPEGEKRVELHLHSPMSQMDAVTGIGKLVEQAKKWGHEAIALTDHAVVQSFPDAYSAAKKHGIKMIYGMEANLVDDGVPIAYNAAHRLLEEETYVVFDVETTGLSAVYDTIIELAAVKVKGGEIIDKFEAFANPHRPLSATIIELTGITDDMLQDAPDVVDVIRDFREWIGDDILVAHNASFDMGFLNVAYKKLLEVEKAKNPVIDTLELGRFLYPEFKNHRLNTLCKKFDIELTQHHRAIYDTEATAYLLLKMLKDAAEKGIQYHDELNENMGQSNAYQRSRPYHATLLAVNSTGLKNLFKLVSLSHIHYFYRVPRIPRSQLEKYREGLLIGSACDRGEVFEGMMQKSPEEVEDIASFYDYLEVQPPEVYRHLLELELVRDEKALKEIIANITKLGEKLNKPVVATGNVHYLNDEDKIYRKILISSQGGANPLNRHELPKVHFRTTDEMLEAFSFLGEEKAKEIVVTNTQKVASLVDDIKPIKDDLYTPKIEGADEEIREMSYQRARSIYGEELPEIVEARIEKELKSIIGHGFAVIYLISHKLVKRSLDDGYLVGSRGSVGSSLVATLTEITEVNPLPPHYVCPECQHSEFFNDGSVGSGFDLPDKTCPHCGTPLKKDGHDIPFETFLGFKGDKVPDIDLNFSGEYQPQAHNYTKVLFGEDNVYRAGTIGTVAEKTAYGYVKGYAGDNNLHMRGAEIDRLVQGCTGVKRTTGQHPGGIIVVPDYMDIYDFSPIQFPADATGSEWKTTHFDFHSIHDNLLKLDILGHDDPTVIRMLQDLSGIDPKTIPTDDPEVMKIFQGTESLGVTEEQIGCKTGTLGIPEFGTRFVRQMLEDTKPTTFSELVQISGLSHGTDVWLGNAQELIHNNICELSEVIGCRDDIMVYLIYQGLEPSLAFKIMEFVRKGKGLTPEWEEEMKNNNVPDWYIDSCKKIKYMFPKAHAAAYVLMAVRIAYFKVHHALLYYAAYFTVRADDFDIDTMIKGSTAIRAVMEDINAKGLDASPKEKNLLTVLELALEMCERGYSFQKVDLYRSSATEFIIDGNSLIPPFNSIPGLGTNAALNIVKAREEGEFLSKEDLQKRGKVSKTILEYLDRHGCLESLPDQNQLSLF
Experimental: Recombinant, purified pol IIIC and pol IIIE from Bacillus subtilis were obtained using known methods (Hammond et al., Gene 98: 29-36 (1991), regarding pol IIIC; Barnes et al., J. Bacteriol. 184, 3834-3838 (2002), regarding pol IIIE). Recombinant, purified pol IIIE from Escherichia coli was obtained from a commercial source (Enzyco, Denver, Colo.). The enzyme assays were performed in 96-well plate format using the same assay mix for all three enzymes. […] Dilutions of compounds were added to the plate in 1% DMSO (1 μL/well). Assays were initiated by the addition of 0.025 to 0.06 units of enzyme (1 unit is the amount required to incorporate 250 pmoles of [^3H] dTMP in a standard assay), incubated for 10 min at 30° C. and terminated by the addition of 200 μL of cold 10% trichloroacetic acid, 10 mM sodium pyrophosphate. Precipitated labeled DNA was collected on glass fiber filter plates that had been pre-wet with ice cold 1 M HCl, 100 mM sodium pyrophosphate. The plates were washed with the HCl solution followed by ice cold 90% ethanol and then dried and counted in a liquid scintillation counter. […] In addition, percent inhibition values are calculated as the percent reduction in the activity of a DMSO (diluent) control.

S. aureus Smith strain = assay: Inhibition of bacterial growth (MIC), Sm; type: cell-based, Staphylococcus aureus; conditions: 16 to 18 hours, 37° C.; for MIC: Staphylococcus aureus, read-out: Minimum Inhibitory Concentration for Bacterial Growth, Sm
Experimental: as §1

[4] = system: methicillin-resistant S. aureus strain 1094; assay: Inhibition of bacterial growth (MIC), MRSA; type: cell-based, Staphylococcus aureus; conditions: 16 to 18 hours, 37° C.; for MIC: Staphylococcus aureus, MRSA, read-out: Minimum Inhibitory Concentration for Bacterial Growth, MRSA
Experimental: as §1

[5] = system: Escherichia coli strain J53; assay: Inhibition of bacterial growth (MIC), Ec; type: cell-based; conditions: 16 to 18 hours, 37° C.; for MIC: read-out: Minimum Inhibitory Concentration for Bacterial Growth, Ec
Experimental: as §1

B. subtilis pol IIIE [6] = biological target: T2, B. subtilis pol IIIE (Bacillus subtilis, UniProt O34623); assay: DNA polymerase assay, B. subtilis pol IIIE; type: biochemical
T2 construct: made in house
T2 sequence (O34623 whole entry): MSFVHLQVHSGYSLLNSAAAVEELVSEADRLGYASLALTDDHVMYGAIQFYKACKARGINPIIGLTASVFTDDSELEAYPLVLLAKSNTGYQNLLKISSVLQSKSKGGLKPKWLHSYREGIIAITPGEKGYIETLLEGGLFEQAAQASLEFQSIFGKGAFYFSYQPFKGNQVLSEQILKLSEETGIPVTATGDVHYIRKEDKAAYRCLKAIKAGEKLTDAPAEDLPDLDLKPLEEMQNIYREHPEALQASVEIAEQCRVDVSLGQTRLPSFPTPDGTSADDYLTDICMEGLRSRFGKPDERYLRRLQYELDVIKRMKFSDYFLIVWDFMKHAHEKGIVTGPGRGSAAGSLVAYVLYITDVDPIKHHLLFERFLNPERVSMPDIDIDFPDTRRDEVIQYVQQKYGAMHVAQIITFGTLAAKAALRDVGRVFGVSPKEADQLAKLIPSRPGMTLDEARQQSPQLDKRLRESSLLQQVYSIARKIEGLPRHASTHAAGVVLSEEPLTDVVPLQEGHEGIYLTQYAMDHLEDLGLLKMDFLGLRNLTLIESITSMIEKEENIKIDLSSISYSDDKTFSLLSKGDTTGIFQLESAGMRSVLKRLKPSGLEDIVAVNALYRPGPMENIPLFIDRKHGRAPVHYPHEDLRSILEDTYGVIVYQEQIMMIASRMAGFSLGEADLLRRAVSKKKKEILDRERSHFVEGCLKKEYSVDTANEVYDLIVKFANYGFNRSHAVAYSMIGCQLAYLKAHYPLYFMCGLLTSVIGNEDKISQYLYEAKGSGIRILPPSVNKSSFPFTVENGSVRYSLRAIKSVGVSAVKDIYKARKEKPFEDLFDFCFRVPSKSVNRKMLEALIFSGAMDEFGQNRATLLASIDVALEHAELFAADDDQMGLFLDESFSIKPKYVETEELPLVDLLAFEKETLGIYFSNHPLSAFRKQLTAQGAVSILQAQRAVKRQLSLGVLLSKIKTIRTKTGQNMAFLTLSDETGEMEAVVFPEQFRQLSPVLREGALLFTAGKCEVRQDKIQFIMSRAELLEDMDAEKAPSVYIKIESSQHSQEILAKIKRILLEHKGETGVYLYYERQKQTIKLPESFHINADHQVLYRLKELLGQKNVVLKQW

B. subtilis pol IIIE [7] = biological target: T2, B. subtilis pol IIIE; assay: DNA polymerase assay, B. subtilis pol IIIE; type: biochemical; conditions: for inhibition at 80 µg/mL: read-out: Percent Enzymatic Inhibition B. subtilis pol IIIE; for pIC50: B. subtilis Pol IIIE IC50, 4 dNTPs
Experimental: (§2) Recombinant, purified pol IIIC and pol IIIE from Bacillus subtilis were obtained using known methods (Hammond et al., Gene 98: 29-36 (1991), regarding pol IIIC; Barnes et al., J. Bacteriol. 184, 3834-3838 (2002), regarding pol IIIE). Recombinant, purified pol IIIE from Escherichia coli was obtained from a commercial source (Enzyco, Denver, Colo.). The enzyme assays were performed in 96-well plate format using the same assay mix for all three enzymes. Each 25 μL assay contained 30 mM Tris, pH 7.5, 10 mM magnesium acetate, 4 mM dithiothreitol, 20% glycerol, with 10 μM dATP, dCTP, dGTP and dTTP (3H-labelled at 1.44 Ci/mmole) and 0.4 mg/mL activated calf thymus DNA as substrates. Dilutions of compounds were added to the plate in 1% DMSO (1 μL/well). Assays were initiated by the addition of 0.025 to 0.06 units of enzyme (1 unit is the amount required to incorporate 250 pmoles of [^3H] dTMP in a standard assay), incubated for 10 min at 30° C. and terminated by the addition of 200 μL of cold 10% trichloroacetic acid, 10 mM sodium pyrophosphate. Precipitated labeled DNA was collected on glass fiber filter plates that had been pre-wet with ice cold 1 M HCl, 100 mM sodium pyrophosphate. The plates were washed with the HCl solution followed by ice cold 90% ethanol and then dried and counted in a liquid scintillation counter. The calculated IC50 is the concentration needed to inhibit 50% of the DNA polymerase activity in the presence of all four dNTP substrates. In addition, percent inhibition values are calculated as the percent reduction in the activity of a DMSO (diluent) control.

[8] = system: E. faecium clinical isolate; assay: Inhibition of bacterial growth (MIC), Efcm; type: cell-based; conditions: 16 to 18 hours, 37° C.; for MIC: Enterococcus faecium, read-out: Minimum Inhibitory Concentration for Bacterial Growth, Efcm
Experimental: as §1

E. coli pol IIIE = biological target: T3, E. coli pol IIIE (Escherichia coli, UniProt P10443); assay: DNA polymerase assay, E. coli pol IIIE; type: biochemical; conditions: 80 μg/mL (190-260 μM) final concentration, all four dNTPs
T3 construct: purchased Enzyco, Denver, Colo
T3 sequence (P10443 whole entry): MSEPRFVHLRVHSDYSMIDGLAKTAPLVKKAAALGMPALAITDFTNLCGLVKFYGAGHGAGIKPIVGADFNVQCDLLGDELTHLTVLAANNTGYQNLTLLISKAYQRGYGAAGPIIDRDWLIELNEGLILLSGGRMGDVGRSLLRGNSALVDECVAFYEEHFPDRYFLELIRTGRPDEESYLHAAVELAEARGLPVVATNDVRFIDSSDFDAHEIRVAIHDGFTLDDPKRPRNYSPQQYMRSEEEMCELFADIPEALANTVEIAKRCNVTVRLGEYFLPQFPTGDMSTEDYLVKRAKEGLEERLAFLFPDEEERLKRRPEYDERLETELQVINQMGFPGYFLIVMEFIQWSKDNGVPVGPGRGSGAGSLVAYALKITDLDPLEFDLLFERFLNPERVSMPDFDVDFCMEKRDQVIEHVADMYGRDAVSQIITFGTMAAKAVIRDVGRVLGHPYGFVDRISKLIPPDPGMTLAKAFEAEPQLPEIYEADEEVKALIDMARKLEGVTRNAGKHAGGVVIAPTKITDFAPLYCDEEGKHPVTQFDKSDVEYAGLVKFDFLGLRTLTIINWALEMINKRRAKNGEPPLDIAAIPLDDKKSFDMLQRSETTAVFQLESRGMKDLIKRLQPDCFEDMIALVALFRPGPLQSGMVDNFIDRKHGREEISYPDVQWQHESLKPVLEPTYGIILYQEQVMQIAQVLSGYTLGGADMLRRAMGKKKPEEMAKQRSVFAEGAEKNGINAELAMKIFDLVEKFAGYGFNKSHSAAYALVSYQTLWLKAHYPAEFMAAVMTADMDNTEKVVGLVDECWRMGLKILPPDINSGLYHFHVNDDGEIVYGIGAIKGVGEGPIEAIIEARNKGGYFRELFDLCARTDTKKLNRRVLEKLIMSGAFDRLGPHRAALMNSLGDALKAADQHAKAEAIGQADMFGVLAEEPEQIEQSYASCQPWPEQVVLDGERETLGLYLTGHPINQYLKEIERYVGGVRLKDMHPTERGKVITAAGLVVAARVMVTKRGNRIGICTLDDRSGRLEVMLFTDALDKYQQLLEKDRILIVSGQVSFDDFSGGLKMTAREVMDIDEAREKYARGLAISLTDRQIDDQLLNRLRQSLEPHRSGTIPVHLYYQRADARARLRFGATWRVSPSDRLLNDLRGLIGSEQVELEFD
Experimental: as §2

[9] = system: vancomycin-resistant Enterococcus strain B42762; assay: Inhibition of bacterial growth (MIC), VRE; type: cell-based; conditions: 16 to 18 hours, 37° C.; for MIC: VRE, read-out: Minimum Inhibitory Concentration for Bacterial Growth, VRE
Experimental: as §1

[10] = 80 μg/mL (190-260 μM) final concentration, all four dNTPs
[11] = B. subtilis Pol IIIC IC50, −dATP, in the absence of dATP
[12] = B. subtilis Pol IIIC IC50, −dCTP, in the absence of dCTP
[13] = B. subtilis Pol IIIC IC50, −dGTP, in the absence of dGTP
[14] = in the presence of all four dNTP substrates
[15] = B. subtilis Pol IIIE IC50, −dATP, in the absence of dATP
[16] = B. subtilis Pol IIIE IC50, −dCTP, in the absence of dCTP
[17] = B. subtilis Pol IIIE IC50, −dGTP, in the absence of dGTP

Structure (SMILES)	MIC [1]	MIC [2]	MIC [3]	inhibition at 80 µg/mL (B. subtilis pol IIIC; [10])	pIC50 (B. subtilis pol IIIC; [11])	pIC50 (B. subtilis pol IIIC; [12])	pIC50 (B. subtilis pol IIIC; [13])	B. subtilis Pol IIIC IC50, 4 dNTPs (B. subtilis pol IIIC; [14])	MIC (S. aureus Smith strain)	MIC [4]	MIC [5]	pIC50 (B. subtilis pol IIIE [6]; [15])	pIC50 (B. subtilis pol IIIE [6]; [16])	pIC50 (B. subtilis pol IIIE [6]; [17])	inhibition at 80 µg/mL (B. subtilis pol IIIE [7]; [10])	pIC50 (B. subtilis pol IIIE [7]; [14])	MIC [8]	MIC [9]	Percent Enzymatic Inhibition E. coli pol IIIE (E. coli pol IIIE)	further results
COc1cc(C=NNC(=O)c2cc(-c3ccccc3)n[nH]2)ccc1O [Compound 5]	40 µg/mL (≈ 119 µM)	60 µg/mL (≈ 178 µM)	20 µg/mL (≈ 59.5 µM)	4.8%	4.39	3.58	4.05	Inactive	40 µg/mL (≈ 119 µM)	40 µg/mL (≈ 119 µM)	> 80 µg/mL	3.67	3.42	3.95	> 20%	3.69	80 µg/mL (≈ 238 µM)	40 µg/mL (≈ 119 µM)		inhibition at 80 µg/mL (E. coli pol IIIE; read-out: Percent Enzymatic Inhibition E. coli pol IIIE): 2%
COc1ccc(C=NNC(=O)c2cc(-c3ccc(Cl)cc3)n[nH]2)cc1OC [Compound 15]																			Inactive	Minimum Inhibitory Concentration for Bacterial Growth, Efcl [1]: >80 µg/mL; Minimum Inhibitory Concentration for Bacterial Growth, Bs [2]: >80 µg/mL; Minimum Inhibitory Concentration for Bacterial Growth, Sa ([3]; 16 to 18 hours): 8 µg/mL; Percent Enzymatic Inhibition B. subtilis pol IIIC (B. subtilis pol IIIC; [10]): Inactive; Minimum Inhibitory Concentration for Bacterial Growth, Sm (S. aureus Smith strain): >80 µg/mL; Minimum Inhibitory Concentration for Bacterial Growth, MRSA [4]: >80 µg/mL; Minimum Inhibitory Concentration for Bacterial Growth, Ec [5]: >80 µg/mL; Percent Enzymatic Inhibition B. subtilis pol IIIE (B. subtilis pol IIIE [7]; [10]): 13.7%; Minimum Inhibitory Concentration for Bacterial Growth, Efcm [8]: 40 µg/mL; Minimum Inhibitory Concentration for Bacterial Growth, VRE [9]: >80 µg/mL
COc1ccc(-c2cc(C(=O)NN=Cc3ccc(O)cc3)[nH]n2)cc1 [Compound 16]	> 80 µg/mL	> 80 µg/mL	> 80 µg/mL	9.9%	4.05	4.02	4.22	Inactive	> 80 µg/mL	> 80 µg/mL	> 80 µg/mL	3.93	3.81	3.50	> 20%		> 80 µg/mL	80 µg/mL (≈ 238 µM)	Inactive	B. subtilis Pol IIIE IC50, 4 dNTPs (B. subtilis pol IIIE [7]; [14]): Inactive
CCOc1ccc(-c2cc(C(=O)NN=Cc3ccc(O)c(OC)c3)[nH]n2)cc1 [Compound 19]	> 80 µg/mL	2.5 µg/mL (≈ 6.57 µM)	80 µg/mL (≈ 210 µM)	> 20%	5.05	5.48	5.29		> 80 µg/mL	5 µg/mL (≈ 13.1 µM)	> 80 µg/mL	< 3.08	< 3.08	< 3.08	10.1%	< 3.08	> 80 µg/mL	10 µg/mL (≈ 26.3 µM)	Inactive	pIC50 (B. subtilis pol IIIC; B. subtilis Pol IIIC IC50, 4 dNTPs, in the presence of all four dNTP substrates): 4.64
